Earlier results in publication PMC10950972, “Relative bioavailability of fedratinib through various alternative oral administration methods in healthy adults” (Cancer Chemotherapy and Pharmacology, 2023).

Experiments:
[1] = parameters: method as in PMID 15598479; conditions: cited from earlier work
[2] = parameters: method as in PMID 34480861; conditions: patients; compared with healthy adults and patients with rheumatoid arthritis; cited from earlier work

Row | SMILES | Differences in bioavailability and PK parameters, intact capsules vs nasogastric administration [1] | PK after solution of crushed tablets via nasogastric tube vs PK previously reported [2]
1 | COc1cc2ncnc(Nc3ccc(F)c(Cl)c3)c2cc1OCCCN1CCOCC1 [gefitinib] | no clinically significant differences | –
2 | CCS(=O)(=O)N1CC(CC#N)(n2cc(-c3ncnc4[nH]ccc34)cn2)C1 [baricitinib] | – | consistent with PK results previously reported
